Two molecules from patent US7429564B2, “Oral insulin therapy” (Emisphere Technologies, Inc., priority 2002, dated 2008) can be followed below.

For one series, the system named is glucose infusion rate. Put plainly: Example 6: glucose clamp study, glucose infusion rate PD and relative biopotency. The series is classed as in vivo, human. The following applies: SC 15 U. The text has this:
The glucose clamp technique was applied to compare the time-action profiles of the orally applied insulin in comparison to SC regular insulin. This method utilizes negative feedback from frequent blood glucose sample values to adjust a glucose infusion to maintain a defined and constant blood glucose level. The glucose infusion rate therefore becomes a measure of the pharmacodynamic effect of any insulin administered.
During each study visit, stabilized individual blood glucose concentrations were maintained after drug administration using a glucose clamp procedure. The glucose clamp technique [DeFronzo, et al. 1979, Glucose Clamp Technique: A Method of Quantifying Insulin Secretion and Resistance, Am. J. Physiol. 237: E214-E223.] was use to compare the time-action profiles of the orally-applied insulin to s.c. insulin. This method utilizes negative feedback from frequent blood glucose sample values to adjust a glucose infusion to maintain euglycemia. The glucose infusion rate becomes a measure of the pharmacodynamic effect of any insulin administered.
The clamp level was adjusted by a variable intravenous (IV) insulin infusion and glucose infusion rate during a 6 hour baseline period before dosing. During the last 2 hours before administration of the study medication, the insulin infusion was set to a rate of 0.2 mU/kg/min, which rate was not changed until the end of the experiment. At t=0 minutes, exogenous insulin was administered by oral administration or by SC injection. The PD response elicited by the study medication was registered for another 6 hours. No food intake was allowed during this period, but water could be consumed as desired.
The glucose clamp procedure was performed using a Biostator (glucose controlled insulin infusion system—GCIIS, Life Science Instruments, Elkhart, Ind., USA). A 17-gauge PTFE catheter was inserted into an antecubital vein for blood sampling and kept patent with 0.15 mol/L saline. A dorsal hand vein or lateral wrist vein of the same arm was cannulated in retrograde fashion for insertion of an 18-gauge PTFE double lumen catheter connected to the glucose sensor of the Biostator. The catheterized hand was placed in a hot box and warmed to an air temperature of 55° C. On the contralateral arm, a third vein was cannulated with an 18-gauge PTFE catheter to infuse a glucose solution (20% in water). Into the same vein, an insulin solution (regular human insulin in 0.15 mol/L saline diluted with 2 mL of the patient's blood per 100 mL) was continuously infused by means of a syringe pump (Perfusor Secura FT, Braun, Melsungen, Germany).
The primary PD endpoint of the study was the area under the glucose infusion rate curve (AUCGIR) in the first hr after drug administration (AUCGIR 0-1h). The secondary endpoints for pharmacodynamic assessment were the following parameters: Maximum glucose infusion rate (GIRmax), time to GIRmax (tGIRmax), area under the glucose infusion rate curve in defined time-intervals (AUCGIR 0-2h, AUCGIR 0-3h, AUCGIR 0-4h, AUCGIR 0-5h, AUCGIR 0-6h), time to early and late half-maximum glucose infusion rate (early and late TGIR 50%), and maximum reduction of C-peptide concentrations.
PD parameters used for analysis were the maximum glucose infusion rate after application of the study drugs (GIRmax), the time to maximum glucose infusion rate (tGIRmax), time to half-maximum GIR values before GIRmax (early tGIR 50%), time to half-maximum GIR values after GIRmax (late tGIR 50%), and the area under the glucose infusion rate versus time curves from 0 to 60, 120, 180, 240, 300, and 360 min after dosing, and from 180 to 360 min post dose (AUCGIR 0-1h, AUCGIR 0-2h, AUCGIR 0-3h AUCGIR 0-4h, AUCGIR 0-5h, AUCGIR 0-6h, AUCGIR 3-6h, respectively). In addition, plasma concentrations of C-peptide and plasma glucose concentrations were used for PD analysis. […]

A further series can be described thus: Example 6: safety. Set-up: species or system human. The following applies: in vivo.
Series [1] can be described thus: Example 5: safety and tolerability. To be noted: 4-CNAB alone, oral 400-2000 mg.
Text: Safety assessments included physical examinations, medical history, vital signs, 12-lead electrocardiogram (ECG) monitoring, laboratory evaluations and checking for adverse events. Activity parameters included blood glucose, insulin, C-peptide, and 4-CNAB plasma concentration measurements.
Series [2] can be described thus: Example 7: 4-CNAB plasma concentrations. The following applies: after start of meal intake; 200 or 400 mg 4-CNAB. The series is classed as in vivo, human. On the procedure:
Blood samples for determination of 4-CNAB plasma concentrations (2 mL in sodium heparin tube) were drawn 10, 20, 30, 40, 60, 90, 120, 240 and 360 minutes after start of meal intake (9 samples per session). Blood samples for determination of insulin and C-peptide plasma concentrations (5 mL in sodium heparin tube) were drawn at −60 and −30 minutes, at time 0 (start of meal intake), and after 10, 20, 30, 40, 50, 60, 75, 90, 105, 120, 150, 180, 210, 240, 300, and 360 minutes (19 samples per session). Plasma concentrations of insulin were determined by a GLP-validated microparticle enzyme immunoassay (MEIA).

As to “SC insulin: human regular insulin injected subcutaneously (Humulin R or equivalent; Calbiochem insulin in the rat studies)”, in the series with glucose infusion rate, the “GIR Early t50%” value stood at 150 ± 87 min, the GIRmax was 3.6 ± 1.8 mg/kg/min, the “Glucose infusion rate AUC0-1h” value was 27 ± 32 mg/kg and the “Glucose infusion rate AUC0-2h” value stood at 136.54 ± 106.54 mg/kg. In the series with glucose infusion rate, the “Glucose infusion rate AUC0-3h” value is listed as 271.43 ± 191.04 mg/kg, the “Glucose infusion rate AUC0-4h” value was 421.33 ± 264.76 mg/kg, the “Glucose infusion rate AUC0-5h” value was determined as 548.83 ± 342.71 mg/kg and the “Glucose infusion rate AUC0-6h” value was determined as 650.70 ± 380.16 mg/kg. The same molecule displayed a tGIRmax in the series on glucose infusion rate of 255 ± 108 min. In the series with glucose infusion rate (listed as SC Regular Insulin), the “GIR Early t50%” value was determined as 150.40 ± 87.44 min, the GIRmax is 3.57 ± 1.79 mg/kg/min, the “Glucose infusion rate AUC0-1h” value was determined as 27.38 ± 32.22 mg/kg and the tGIRmax was determined as 255.30 ± 108.15 min. In addition, the “Adverse events / tolerability” value in the series “Example 6: safety” is “No adverse events were observed”.
For `O=C(O)CCCNC(=O)c1ccc(Cl)cc1O` [4-CNAB, 4-[(4-chloro, 2-hydroxybenzoyl)amino]butanoic acid], the Tolerability entry in series [1] was “well tolerated”. In addition, in series [2], the “4-CNAB plasma concentration after 2 hours relative to level at 10 minutes” value is reported as “less than 10%”.
